In one series the test system is MT2 cells. Nature of the series: cytotoxicity towards host cells in the viral-binding inhibition assay. It counts as cell-based. To be noted: at the concentration ranges used in the viral-binding inhibition assay. As for the experimental part: Serial dilutions of the test compounds (ranging from 0.1 μg/ml to 1.0 mg/ml) were added to HIV-1 virus such that 50 μl inoculum produced between 70 to 100 syncytia per well in untreated wells containing MT2 cells. The HIV-1 used was strain IIIs propagated in, and harvested from, a T4-lymphobastoid cell line. Each serial dilution of the test compound with virus was placed in each of three wells containing MT2 cells. The test compound alone was added to a fourth well containing MT2 cells to test for possible cytotoxicity. Triplicate virus control samples (no added test compounds but containing the equivalent amounts of the RPMI medium) were also included.

A further series relates to Lactobacillus gasseri. Nature of the series: effect on normal vaginal flora (Lactobacillus growth in culture). It is filed as cell-based. To be noted: at 0.5 mg/ml. As for the experimental part: This example illustrates the effect of the inhibitory agents of this invention on the normal vaginal flora. Lactobacillus gasseri, which is found in normal vaginal flora, was obtained from the American Type Culture Collection (Rockville, Md.) and cultured under anaerobic conditions at 37° C. in the presence of the desired test agents. Control samples without added test agents were also run. Samples were collected at twenty minute intervals starting at 120 minutes after the start of incubation through 240 minutes. The absorbance at 550 nm was used to estimate the cell density and inhibitory effects. Nonoxynol-9 was also evaluated for comparison purposes.

Series [1] concerns vaginal/cervical epithelial and other cells. To be noted: background statement; cited from earlier work.
Series [2] relates to sheep testicular hyaluronidase. Nature of the series: hyaluronidase inhibition (hyaluronic acid hydrolysis). It is filed as biochemical. To be noted: pH 5.5, 10 minutes preincubation; inactive = no inhibition at 1 mg/ml. As for the experimental part: Hyaluronidase activity was quantitatively determined by measuring the extent of hyaluronic acid hydrolysis (i.e., the concentration of N-acetylglucosamine-reactive material formed from enzyme activity). Reaction mixtures (0.25 ml) containing the following were prepared: test compound (variable concentration); 0.1 M sodium acetate; 0.15 M sodium chloride; pH adjusted to 5.5; 7.2 units sheep testicular hyaluronidase (Sigma, Type III; H-2251) contained in an acetate buffer; 0.3 mg/ml hyaluronic acid (Sigma, from bovine vitreous humor; H-7630). The enzyme was preincubated with the test agent (1 mg/ml for screening purposes) for 10 minutes before starting the reaction by the addition of hyaluronic acid. The enzyme reaction was determined using the method of Aronson and Davidson (J. Biol. Chem. 241 437-440 (1967)). The reaction mixture was incubated for 30 minutes at room temperature.
The reversibility of the hyaluronidase was determined by evaluating enzyme activity at different levels of enzyme (Ackermann and Potter, Proc. Soc. Exp. Biol. Med. 72 1-9 (1949)).

Another series has as its system HIV-1. To be noted: comparison statement, no data given; cited from earlier work.

Data on 1 substance can be found in patent publication US6239182A, “Method for preventing sexually transmitted diseases” (priority 1999, dated 2001).

In the case of Nonoxynol-9, the “toxicity towards the host cells (MT2)” value in the series with MT2 cells is given as “did show cytotoxic effects”. For the same substance, the “inhibition of Lactobacillus gasseri growth” value with Lactobacillus gasseri is “about 60%”. Besides, the “lowest concentration that can injure vaginal/cervical epithelial and other cells” value in series [1] is given as “about 0.0005%”. Further, the “IC50 (hyaluronidase)” value in series [2] was “inactive”. For the same substance, the “inhibition of the enveloped virus HIV (in words)” value in the series with HIV-1 is on record as “inhibits”.
